Data reported in patent publication US20060210611A1, “Fat soluble vitamin feed supplements and processes for delivering same” (priority 2003, published 2006).
Read-outs that look alike come from different tables or passages of the source.

Tests used:
[1] = per 1 mg; cited from earlier work
[2] = Dietary vitamin E regimens and final longissimus muscle α-tocopherol (AT) concentration (Arnold); format: in vivo, cattle
Method: For example, Arnold compared several dietary vitamin E regimens and their resultant final tissue concentration of α-tocopherol (AT). Comparing the results to baseline control and assuming AT accretion in longissimus muscle is linear over time, approximate rates of AT accretion are calculated for various E regimens. Because AT rise is likely logarithmic (See e.g., Arnold et al., J. Anim. Sci. 71:105-118. (1993)), these calculated rates are conservative estimates, especially for feeding periods exceeding 150 days.

[3] = AT accretion in RCDM neck muscle at 1,000 IU vitamin E/hd/day (McClure); format: in vivo, Bos indicus crosses; conditions: 1000 IU/hd/day (McClure), 25-125 days fed
Method: McClure (FIG. 1) tested the rate of accretion in Bos indicus crosses when fed 1,000 IU of Vitamin E/hd/day. Groups of cattle were slaughtered at 25-day intervals, and neck muscles obtained for tissue AT analysis. Because the controls were already receiving 200 IU E/day, initial AT concentrations were above 3.5. However, RCDM (rectus capitis dorsalis major) AT concentration rose in a logarithmic fashion, eventually reaching a plateau of 9.3 μg/gm. (McClure et al., Determination of Appropriate Vitamin E Supplementation Levels and Administration Times to Ensure Adequate Muscle Tissue Alpha-Tocopherol Concentrations in Cattle Destined for the Nolan Ryan Tender-Aged Beef (NRTAAB) Program, Animal Sciences Report (2002)).

[4] = Calculated average AT accretion rates in longissimus muscle (Arnold and McClure combined); format: in vivo, cattle
Text: Combining the results from Arnold and McClure, and bearing in mind that various muscles accrete AT at different rates (sirloin>inside round>RCDM>strip loin; Roeber et al., Effects of Three Levels of α-Tocopherol Acetate Supplementation to Feedlot Cattle on Performance of Beef Cuts (2001)), average accretion rates for AT in longissimus muscle can be calculated: […]

[5] = cited from earlier work
[6] = cited from earlier work; remark: listed apart in the source
[7] = 360 IU/hd/day, 211-252 days fed
[8] = 1280 IU/hd/day, 211-252 days fed
[9] = 2080 IU/hd/day, 196-266 days fed
[10] = 3520 IU/hd/day, 196-266 days fed

CC(=O)Oc1c(C)c(C)c2c(c1C)CCC(C)(CCCC(C)CCCC(C)CCCC(C)C)O2 (racemic) [all-rac-α-tocopherol acetate]
specific activity [1]: 1.00 IU per milligram

Cc1c(C)c2c(c(C)c1O)CCC(C)(CCCC(C)CCCC(C)CCCC(C)C)O2 (racemic) [all-rac-α-tocopherol]
specific activity [1]: 1.10 IU per milligram

CC(=O)Oc1c(C)c(C)c2c(c1C)CC[C@@](C)(CCC[C@H](C)CCC[C@H](C)CCCC(C)C)O2 [RRR-α-tocopherol acetate]
specific activity [1]: 1.36 IU per milligram

Cc1c(C)c2c(c(C)c1O)CC[C@@](C)(CCC[C@H](C)CCC[C@H](C)CCCC(C)C)O2 [RRR-α-tocopherol]
specific activity [1]: 1.49 IU per milligram

Vitamin E
Calculated Rise in AT per 50 days ([2]; 300 IU/hd/day, 231-309 days fed, vs control baseline, linear accretion assumed): 0.52 μg/gm/50 days | Calculated Rise in AT per 50 days [2, 7]: 0.64 μg/gm/50 days | Calculated Rise in AT per 50 days ([2]; 1140 IU/hd/day, 67 days fed): 3.58 μg/gm/50 days | Calculated Rise in AT per 50 days ([2]; 1200 IU/hd/day, 38 days fed): 2.76 μg/gm/50 days | Calculated Rise in AT per 50 days [2, 8]: 1.28 μg/gm/50 days | Calculated Rise in AT per 50 days [2, 9]: 1.38 μg/gm/50 days | Calculated Rise in AT per 50 days [2, 10]: 1.58 μg/gm/50 days | Calculated Rise in AT per 50 days [3]: 2.6 μg/gm/50 days | AT Accretion ([4]; Vitamin E dose 500 IU/hd/day): 0.75-1.0 μg AT/gm wet muscle/50 days | AT Accretion ([4]; Vitamin E dose 1000+ IU/hd/day): 1.5-3.6 μg AT/gm wet muscle/50 days | AT Accretion ([4]; Vitamin E dose less than 500 IU/hd/day): 0.5-0.6 μg AT/gm wet muscle/50 days | Final Longissimus AT concentration ([5]; 300 IU/hd/day, 231-309 days fed): 3.8 μg/gm wet muscle | Final Longissimus AT concentration [5, 7]: 4.1 μg/gm wet muscle | Final Longissimus AT concentration ([5]; 1140 IU/hd/day, 67 days fed): 6.2 μg/gm wet muscle | Final Longissimus AT concentration ([5]; 1200 IU/hd/day, 38 days fed): 3.5 μg/gm wet muscle | Final Longissimus AT concentration [5, 8]: 6.8 μg/gm wet muscle | Final Longissimus AT concentration [5, 9]: 6.8 μg/gm wet muscle | Final Longissimus AT concentration [5, 10]: 7.6 μg/gm wet muscle | RCDM AT concentration plateau ([6]; 1,000 IU of Vitamin E/hd/day, slaughter at 25-day intervals): 9.3 μg/gm | Final AT concentration (in RCDM muscle) ([6]; 1000 IU/hd/day (McClure), 25-125 days fed): 9.3 μg/gm wet muscle | initial AT concentrations ([6]; controls already receiving 200 IU E/day): above 3.5
